Assay results taken from patent publication US20090202569A1, “Prophylactic/Therapeutic Agent for Cancer” (priority 2006, published 2009).

How the values were obtained:
SF268/ACS5 cells = experiment: FAS inhibitor sensitivity of cells with stable high ACS5 expression, surviving cells counted by trypan blue exclusion; format: cell-based, human; conditions: 15 μg/ml, treated for 24 hours
[1] = tested on: lung cancer cell strain NCI-H23; experiment: Combined effect of ACS inhibitor and FAS inhibitors, cell survival rate by the Sulforhodamine B method; format: cell-based; conditions: 3 days, n=3, 100% = without drug treatment
SF268/mock cells = experiment: FAS inhibitor sensitivity of control cells, surviving cells counted by trypan blue exclusion; format: cell-based, human; conditions: 15 μg/ml, treated for 24 hours

Structure (SMILES)	growth suppression effect (SF268/ACS5 cells)	cell survival rate ([1]; NCI-H23, 2 μM FAS inhibitor alone)	growth suppression effect (SF268/mock cells)	cell survival rate ([1]; NCI-H23, 0.3 μM Triacsin C alone)
C/C=C/C/C=C/CCC(=O)[C@H]1O[C@H]1C(N)=O [Cerulenin, 2R,3S,E,E)-2,3-epoxy-4-oxo-7,10-dodecadienamide]	no growth suppression effect	70.2±7.9%	clear growth suppression effect	
CCCC=CCC=CC=CC=NNN=O [Triacsin C, 2,4,7-undecatrienal nitrosohydrazone]				56.3±0.5%
